# Measurements taken from patent US9908826B2, “Synthetic method” (University Court of the University of St. Andrews, priority 2014, dated 2018).
# Legend:
# human oestrogen receptor [1] = biological target: T1, human oestrogen receptor (Homo sapiens, UniProt P03372); assay: recombinant yeast oestrogen screen (YES) assay; format: cell-based
# T1 construct: expressed in transfected cells; host or cells: recombinant yeast (hER yeast strain developed by Glaxo Welcome)
# T1 sequence (P03372 1-595): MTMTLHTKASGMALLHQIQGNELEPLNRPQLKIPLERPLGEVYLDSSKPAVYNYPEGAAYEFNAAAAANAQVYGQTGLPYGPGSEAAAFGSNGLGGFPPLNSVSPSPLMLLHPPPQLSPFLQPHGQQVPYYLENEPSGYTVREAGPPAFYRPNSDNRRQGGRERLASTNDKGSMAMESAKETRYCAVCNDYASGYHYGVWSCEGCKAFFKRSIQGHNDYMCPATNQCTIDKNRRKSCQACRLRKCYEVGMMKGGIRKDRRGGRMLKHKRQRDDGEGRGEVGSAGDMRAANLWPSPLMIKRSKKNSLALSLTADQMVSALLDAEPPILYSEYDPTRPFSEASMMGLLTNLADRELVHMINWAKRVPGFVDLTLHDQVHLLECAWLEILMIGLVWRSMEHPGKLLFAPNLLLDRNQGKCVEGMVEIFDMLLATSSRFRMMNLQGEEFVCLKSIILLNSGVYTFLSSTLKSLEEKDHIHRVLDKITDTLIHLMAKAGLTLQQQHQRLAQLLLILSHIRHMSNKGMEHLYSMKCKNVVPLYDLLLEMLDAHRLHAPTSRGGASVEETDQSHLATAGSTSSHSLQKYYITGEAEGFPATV
# Excerpt: In order to test our hypothesis that 3-nonylphenol might show less oestrogenicity than either the linear or the 4-nonylphenol, we have carried out a yeast oestrogen screen (YES) assay which is specific for oestradiol mimics.
# The recombinant hER yeast strain was developed by Glaxo Welcome and details of the yeast oestrogen screen have been described previously (Routledge and Sumpter, 1996).
# In brief, yeast cells were transfected with the human oestrogen receptor gene together with expression plasmids; the oestrogen response element and the lac-Z gene encoding the enzyme β-galactosidase. The yeast cells were incubated in medium containing the test chemical and the chromogenic substrate, […] (CPRG), and active ligands induced β-gal expression. The β-galactosidase secreted into the medium causes the yellow CPGR to change into a red product, and this is measurable by absorbance.
# The medium components were prepared and the standard assay procedure was followed.^32 Chemicals were serially diluted in ethanol and 10 μl volumes were transferred to 96-well flat-bottom plates where the ethanol was allowed to evaporate to dryness. Then, 200 μl medium containing CPRG and yeast (final cell number of 5×10^5 cells/ml) was added to each well. Included with every assay was a negative control, ethanol, and a positive control, 17 β-oestradiol (stock solution of 17 β-oestradiol (2×10^−7 mol dm^−3) serially diluted in ethanol to achieve final concentrations of 1×10^−8 mol dm^−3 to 4.88×10^−12 mol dm^−3 in the wells).
# The absorbance values were corrected for cell density using the following equation: Corrected value=chemical540nm−(chemical620nm−ethanol blank620nm).
# All chemicals were tested in duplicate and each YES was carried out at least three times.
# [2] = tested on: male Japanese Medaka fish; settings: post-hatching stages of development, references 12, 13, 28; cited from earlier work
# human oestrogen receptor [3] = biological target: T1, human oestrogen receptor; settings: studied before, reference 13; cited from earlier work
# [4] = YES assay, initial 3-NP sample (Pd/C, contains small amounts of ring hydrogenated product)
# [5] = second sample, [RhCl(PPh3)3] hydrogenation, no ring hydrogenation products
smiles,measurement,setting,value
"CCCCCCCCCc1cccc(O)c1 [3-NP, 3-Nonylphenol]",oestrogenicity relative to 17 β-oestradiol (times as oestrogenic),human oestrogen receptor [1]; YES assay (conclusion),~10^−6 times
same,oestrogenic response in the YES assay (in words),"human oestrogen receptor [1]; YES assay, FIG. 1 and FIG. 2",full dose response curve
same,times less potent in oestrogenicity than the banned substance (4-nonylphenol),"human oestrogen receptor [1]; YES assay, 3-nonylphenol prepared by ethenolysis of cardanol (conclusion)",at least 150 times
same,"potency, fold less than 4-NP (mixed isomers)",human oestrogen receptor [1]; [4],~300 fold
same,"potency, fold less than 17 β-oestradiol",human oestrogen receptor [1]; [4],approximately 1.5×10^6 fold
same,reduction in oestrogenic activity on moving the linear alkyl group from the 4- to the 3-position (vs 4-n-NP),"human oestrogen receptor [1]; YES assay, tested 1×10^−3 to 5×10^−7 mol dm^−3, initial sample (Pd/C hydrogenation)",10 fold
same,orders of magnitude less oestrogenic than 4-nonylphenol,"human oestrogen receptor [1]; oestrogenicity studies, summary statement",2 orders of magnitude
same,increase in oestrogenicity of second sample versus initial sample,human oestrogen receptor [1]; [5],2 fold
same,"oestrogenicity, times lower than that of 4-NP mixed isomers",human oestrogen receptor [1]; [5],150 times
"CCCCCCCCCc1ccc(O)cc1 [4-NP, 4-nonylphenol]",endocrine disrupting effect,[2],induce testes-ova
"CCCCCCCCCc1ccc(O)cc1 [4-n-NP, 4-nonylphenol]",oestrogenicity compared with commercial 4-nonylphenol with mixed alkyl chains,human oestrogen receptor [3],lower oestrogenicity
